What was measured:
Assay type in all cases: in vivo, human
[1] = test system: adult subjects with schizophrenia; assay: PANSS positive subscale score, Clinical Study One; details: ITT; for PANSS Positive Subscale Score, Trt Effect (bifeprunox—placebo): ANCOVA
Method: There were five treatment groups in this study. […] Study medication was administered once daily. After Baseline measurements were performed, the titration phase was begun. Bifeprunox treated subjects were titrated up to 5 mg, 10 mg or 20 mg according to a standardized titration schedule (Day 1: 0.125 mg, Day 2: 0.25 mg, Day 3: 0.5 mg, Day 4: 1.0 mg, Day 5: 2.0 mg, Day 6: 5.0 mg, Day 7: 10.0 mg, Day 8: 20 mg). When the assigned dose was reached, subjects were maintained at that dose for the remainder of the six-week treatment period.
The change in the Positive and Negative Symptom Scale (PANSS) total score, from baseline to endpoint, was the primary outcome measure. Secondary efficacy measures included: PANSS positive, PANSS negative, PANSS general psychopathology (GPP) score, PANSS-derived Brief Psychiatric Rating Scale (BPRS) score, Clinical Global Impressions-Severity of Illness (CGI-S), CGI-Improvement (CGI-I) scores, and responder rates. Safety and tolerability evaluations included extrapyramidal symptoms (EPS), weight gain, lipid profile, and serum prolactin.

[2] = test system: adult subjects with schizophrenia; assay: PANSS general psychopathology subscale score, Clinical Study Two; details: for Change from Baseline in General Psychopathology Subscale Score, Mean (SD) / Change from Baseline in General Psychopathology Subscale Score, Median / Trt Effect (bifeprunox - placebo), General Psychopathology Subscale Score / mean change (SD) from Baseline to Endpoint in PANSS general psychopathology subscale score: LOCF; for Change from Baseline in General Psychopathology Subscale Score, Mean (SD) / Change from Baseline in General Psychopathology Subscale Score, Median / Trt Effect (bifeprunox - placebo), General Psychopathology Subscale Score: ITT population; for Trt Effect (bifeprunox - placebo), General Psychopathology Subscale Score: ANCOVA; for PANSS general psychopathology subscale score, treatment effect (bifeprunox—placebo): Endpoint LOCF; for mean change (SD) from Baseline to Endpoint in PANSS general psychopathology subscale score: ITT
Method: (§1) Rating scale assessments were performed weekly, except for week 5, to measure the change from baseline to endpoint of the PANSS total score. Other assessments included: PANSS positive symptom subscale score, PANSS negative symptom subscale score, PANSS general pschopathology subscale score, BPRS total score, BPRS psychosis score, the CGI-S score, the CGI-I score, responder rates based on the PANSS total score, and the Calgary Depression Scale for Schizophrenia (CDSS). […]
(§2) Subjects who completed this study had the option to continue in the long-term. […] Risperidone-treated subjects were titrated from 2 mg to 6 mg daily over a three-day period and were subsequently maintained at 6 mg/day for the remainder of the treatment period. […] Blood samples were also obtained at Screening/Baseline, Week 3, and Week 6 for clinical laboratory assessments.

[3] = test system: adult subjects with schizophrenia; assay: BPRS psychosis cluster score, Clinical Study Two; details: LOCF, ITT population
Method: as §1, §2

[4] = Bifeprunox 10 mg, Endpoint LOCF
[5] = Bifeprunox 20 mg, Endpoint LOCF
[6] = Bifeprunox 30 mg, Week 6/Endpoint
[7] = Bifeprunox 40 mg, Week 6/Endpoint

## O=c1[nH]c2cccc(N3CCN(Cc4cccc(-c5ccccc5)c4)CC3)c2o1 [Bifeprunox, 7-[4-([1,1′-biphenyl]-3-ylmethyl)-1-piperazinyl]-2(3H)-benzoxazolone]
[1]; Bifeprunox 5 mg, Endpoint LOCF
  Change from Baseline in PANSS Positive Subscale Score, Mean (S.D.): −3.2 (5.2)
  Change from Baseline in PANSS Positive Subscale Score, Median: −3
  PANSS Positive Subscale Score, Trt Effect (bifeprunox—placebo): −1.1
[1]; Bifeprunox 5 mg, Week 1, LOCF
  Change from Baseline in PANSS Positive Subscale Score, Mean (S.D.): −1.1 (3.4)
  Change from Baseline in PANSS Positive Subscale Score, Median: −1
[1]; Bifeprunox 5 mg, Week 2, LOCF
  Change from Baseline in PANSS Positive Subscale Score, Mean (S.D.): −2.1 (4.0)
  Change from Baseline in PANSS Positive Subscale Score, Median: −2
[1]; Bifeprunox 5 mg, Week 3, LOCF
  Change from Baseline in PANSS Positive Subscale Score, Mean (S.D.): −2.6 (4.7)
  Change from Baseline in PANSS Positive Subscale Score, Median: −3
[1]; Bifeprunox 5 mg, Week 4, LOCF
  Change from Baseline in PANSS Positive Subscale Score, Mean (S.D.): −3.0 (5.0)
  Change from Baseline in PANSS Positive Subscale Score, Median: −4
[1]; [4]
  Change from Baseline in PANSS Positive Subscale Score, Mean (S.D.): −1.4 (6.1)
  Change from Baseline in PANSS Positive Subscale Score, Median: −1
  PANSS Positive Subscale Score, Trt Effect (bifeprunox—placebo): 0.7
[1]; Bifeprunox 10 mg, Week 1, LOCF
  Change from Baseline in PANSS Positive Subscale Score, Mean (S.D.): −0.6 (3.9)
  Change from Baseline in PANSS Positive Subscale Score, Median: −1
[1]; Bifeprunox 10 mg, Week 2, LOCF
  Change from Baseline in PANSS Positive Subscale Score, Mean (S.D.): −1.2 (4.7)
  Change from Baseline in PANSS Positive Subscale Score, Median: −1
[1]; Bifeprunox 10 mg, Week 3, LOCF
  Change from Baseline in PANSS Positive Subscale Score, Mean (S.D.): −1.1 (5.5)
  Change from Baseline in PANSS Positive Subscale Score, Median: −1
[1]; Bifeprunox 10 mg, Week 4, LOCF
  Change from Baseline in PANSS Positive Subscale Score, Mean (S.D.): −1.1 (5.6)
  Change from Baseline in PANSS Positive Subscale Score, Median: −1
[1]; [5]
  Change from Baseline in PANSS Positive Subscale Score, Mean (S.D.): −3.5 (5.1)
  Change from Baseline in PANSS Positive Subscale Score, Median: −3
  PANSS Positive Subscale Score, Trt Effect (bifeprunox—placebo): −1.5
[1]; Bifeprunox 20 mg, Week 1, LOCF
  Change from Baseline in PANSS Positive Subscale Score, Mean (S.D.): −1.7 (3.5)
  Change from Baseline in PANSS Positive Subscale Score, Median: −1
[1]; Bifeprunox 20 mg, Week 2, LOCF
  Change from Baseline in PANSS Positive Subscale Score, Mean (S.D.): −2.7 (4.3)
  Change from Baseline in PANSS Positive Subscale Score, Median: −3
[1]; Bifeprunox 20 mg, Week 3, LOCF
  Change from Baseline in PANSS Positive Subscale Score, Mean (S.D.): −3.3 (4.4)
  Change from Baseline in PANSS Positive Subscale Score, Median: −3
[1]; Bifeprunox 20 mg, Week 4, LOCF
  Change from Baseline in PANSS Positive Subscale Score, Mean (S.D.): −3.5 (4.8)
  Change from Baseline in PANSS Positive Subscale Score, Median: −3
[2]; Bifeprunox 30 mg, Week 1
  Change from Baseline in General Psychopathology Subscale Score, Mean (SD): −2.7 (6.4)
  Change from Baseline in General Psychopathology Subscale Score, Median: −2
[2]; Bifeprunox 30 mg, Week 2
  Change from Baseline in General Psychopathology Subscale Score, Mean (SD): −4.9 (8.1)
  Change from Baseline in General Psychopathology Subscale Score, Median: −4
[2]; Bifeprunox 30 mg, Week 3
  Change from Baseline in General Psychopathology Subscale Score, Mean (SD): −5.8 (9.2)
  Change from Baseline in General Psychopathology Subscale Score, Median: −5
[2]; Bifeprunox 30 mg, Week 4
  Change from Baseline in General Psychopathology Subscale Score, Mean (SD): −6.1 (9.7)
  Change from Baseline in General Psychopathology Subscale Score, Median: −5
[2]; [6]
  Change from Baseline in General Psychopathology Subscale Score, Mean (SD): −6.0 (10.2)
  Change from Baseline in General Psychopathology Subscale Score, Median: −5
  Trt Effect (bifeprunox - placebo), General Psychopathology Subscale Score: −2.5
[2]; Bifeprunox 40 mg, Week 1
  Change from Baseline in General Psychopathology Subscale Score, Mean (SD): −2.7 (5.9)
  Change from Baseline in General Psychopathology Subscale Score, Median: −2
[2]; Bifeprunox 40 mg, Week 2
  Change from Baseline in General Psychopathology Subscale Score, Mean (SD): −3.4 (7.9)
  Change from Baseline in General Psychopathology Subscale Score, Median: −3
[2]; Bifeprunox 40 mg, Week 3
  Change from Baseline in General Psychopathology Subscale Score, Mean (SD): −3.8 (8.8)
  Change from Baseline in General Psychopathology Subscale Score, Median: −3
[2]; Bifeprunox 40 mg, Week 4
  Change from Baseline in General Psychopathology Subscale Score, Mean (SD): −3.4 (9.3)
  Change from Baseline in General Psychopathology Subscale Score, Median: −2
[2]; [7]
  Change from Baseline in General Psychopathology Subscale Score, Mean (SD): −3.8 (10.1)
  Change from Baseline in General Psychopathology Subscale Score, Median: −3
  Trt Effect (bifeprunox - placebo), General Psychopathology Subscale Score: −0.7
[2]; bifeprunox 30 mg
  PANSS general psychopathology subscale score, treatment effect (bifeprunox—placebo): −2.5
  mean change (SD) from Baseline to Endpoint in PANSS general psychopathology subscale score: −6.0 (10.2)
[2]; bifeprunox 40 mg
  PANSS general psychopathology subscale score, treatment effect (bifeprunox—placebo): −0.7
  mean change (SD) from Baseline to Endpoint in PANSS general psychopathology subscale score: −3.8 (10.1)
[3]; Bifeprunox 30 mg, Week 1
  Change from Baseline in BPRS Psychosis Cluster Score, Mean (SD): −1.7 (2.3)
  Change from Baseline in BPRS Psychosis Cluster Score, Median: −1
[3]; Bifeprunox 30 mg, Week 2
  Change from Baseline in BPRS Psychosis Cluster Score, Median: −2
[3]; Bifeprunox 30 mg, Week 3
  Change from Baseline in BPRS Psychosis Cluster Score, Mean (SD): −3.1 (3.8)
  Change from Baseline in BPRS Psychosis Cluster Score, Median: −2
[3]; Bifeprunox 30 mg, Week 4
  Change from Baseline in BPRS Psychosis Cluster Score, Mean (SD): −3.1 (3.8)
  Change from Baseline in BPRS Psychosis Cluster Score, Median: −3
[3]; [6]
  Change from Baseline in BPRS Psychosis Cluster Score, Mean (SD): −3.2 (4.2)
  Change from Baseline in BPRS Psychosis Cluster Score, Median: −3
  Change from Baseline in BPRS Psychosis Cluster Score, Trt Effect (bifeprunox—placebo): −1.4
[3]; Bifeprunox 40 mg, Week 1
  Change from Baseline in BPRS Psychosis Cluster Score, Mean (SD): −1.7 (2.6)
  Change from Baseline in BPRS Psychosis Cluster Score, Median: −1
